Assay type: physicochemical
Source text: Hydrophilic materials for use in forming the interior wall which have solubilities sensitive to osmotic pressure or to ionic strength can be screened experimentally prior to formulating them within the interior wall. This procedure involves forming an aqueous solution of the candidate hydrophilic materials using distilled water as the solvent. Then, the resulting solution is cast onto a smooth inert surface, such as a glass plate, and allowed to dry to a film. The film is then removed and cut into sections of known area, thickness, and weight. The resulting film samples are then placed in a series of reference solutions of various osmotic pressures or ionic strengths with mild stirring. The time required for the film to dissolve, t, is then measured as a function of osmotic pressure or ionic strength. Then, given the known values of initial film thickness, hi, the dissolution rate of the film, dh/dt, can be calculated according to Equation 5. […]
The solubility of various hydrophilic materials to osmotic pressure was evaluated. […] Thicknesses of the discs were measured with a table micrometer. […] The time to dissolution was then monitored for each sample. Dissolution rate was calculated according to Equation 5 and plotted as a function of osmotic pressure for each molecular weight. […]

hydroxypropylcellulose [Klucel EF]
osmotic pressure at which the film is insoluble: above 30 atmospheres
osmotic pressure at which the film is soluble: 0-30 atmospheres

From patent US8524277B2, “Extended release dosage form” (Alza Corporation, priority 1998, dated 2013)
